Results published in patent publication US20230365492A1, “LITHIUM ORGANIC ACID-AMINO ACID SALT, AND CRYSTAL FORM, COMPOSITION AND APPLICATION THEREOF” (ANYU BIOTECHNOLOGY (HANGZHOU) CO., LTD., priority 2020, published 2023).
Entries after “also recorded” stand apart in the source; their conditions may differ.

Columns and labels:
tau protein = settings: SH-SY5Y cells, 3 hours, Western blot
Excerpt: (§1) GAPDH was used as an internal reference protein.

β-catenine = settings: CHO cells, 0-50 mM, 2 hours, Western blot
Excerpt: as §1

GSK-3β [1] = molecular target: GSK-3β (Cricetulus griseus, UniProt A0A061I155); settings: CHO cells, treated 2 hours, 0-50 mM (vs lithium isobutyrate) or 0-90 mM (vs lithium carbonate), Western blot, GAPDH reference
Sequence of GSK-3β (Cricetulus griseus, UniProt A0A061I155) (A0A061I155 1-428): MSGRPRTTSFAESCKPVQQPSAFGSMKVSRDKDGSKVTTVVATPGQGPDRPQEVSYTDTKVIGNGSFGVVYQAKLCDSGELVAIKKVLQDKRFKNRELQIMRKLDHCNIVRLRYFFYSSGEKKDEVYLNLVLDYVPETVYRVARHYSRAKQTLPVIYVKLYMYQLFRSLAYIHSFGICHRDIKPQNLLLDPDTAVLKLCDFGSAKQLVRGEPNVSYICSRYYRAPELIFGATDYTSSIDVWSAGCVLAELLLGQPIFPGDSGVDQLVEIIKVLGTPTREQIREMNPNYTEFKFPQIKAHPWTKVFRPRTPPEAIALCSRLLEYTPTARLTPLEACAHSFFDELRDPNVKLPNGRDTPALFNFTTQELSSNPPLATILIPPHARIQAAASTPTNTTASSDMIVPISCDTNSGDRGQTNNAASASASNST
Excerpt: The cells were continuously subjected to lysis by an RIPA buffer containing a protease inhibitor, followed by detection by Western blot with phosphorylated GSK-3β (Ser9) or a total GSK-3β antibody as an antibody.
GAPDH (glyceraldehyde-3-phosphate dehydrogenase) was used as an internal reference protein.

Notch protein = settings: SH-SY5Y cells, 3 hours, concentration of less than 50 mM, Western blot
Excerpt: GAPDH was used as an internal reference protein. A Notch protein is an important signaling molecule at the downstream of GSK-3, and plays an important positive role in regulating the proliferation and survival of cells.

GSK-3β [2] = molecular target: GSK-3β (Mus musculus, UniProt Q9WV60); settings: APP/PS1 mice, gavage, 0.02 and 0.08 mmol/mouse, 4 hours after administration
Sequence of GSK-3β (Mus musculus, UniProt Q9WV60) (Q9WV60 whole entry): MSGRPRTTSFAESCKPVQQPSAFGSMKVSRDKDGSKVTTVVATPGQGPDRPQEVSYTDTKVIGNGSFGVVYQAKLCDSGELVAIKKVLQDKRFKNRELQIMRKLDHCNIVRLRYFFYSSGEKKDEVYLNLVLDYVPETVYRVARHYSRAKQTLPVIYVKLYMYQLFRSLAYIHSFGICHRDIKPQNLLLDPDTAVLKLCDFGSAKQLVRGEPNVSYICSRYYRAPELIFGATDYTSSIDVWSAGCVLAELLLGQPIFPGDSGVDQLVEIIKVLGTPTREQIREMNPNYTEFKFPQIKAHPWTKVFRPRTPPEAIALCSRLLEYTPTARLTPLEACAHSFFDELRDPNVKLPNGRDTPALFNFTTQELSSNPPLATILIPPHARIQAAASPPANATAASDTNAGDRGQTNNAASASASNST
Experimental: Brain tissues were extracted, and a homogenate of the brain tissues was prepared.

HEK293 cells = settings: 5 mM, 4 hours, confocal microscope

Experimental for Kunming mice: According to the Horn's method, 40 Kunming mice (with the weight of 19.8-22 g, including half male mice and half female mice) were divided into four groups at an equal ratio of 2.15, including a 464 mg/kg dose group, a 1,000 mg/kg dose group, a 2,150 mg/kg dose group and a 4,640 mg/kg dose group (each group was orally administrated at one time and includes 10 mice with half male mice and half female mice). […] 24 hours later, poisoning symptoms, occurrence time and death time of the experimental animals were observed every day for an observation period of 14 days. Dead animals and other animals sacrificed within 14 days were subjected to gross anatomy. When gross pathological changes were observed by naked eyes, pathological examination was performed.

Row | Compound | total tau protein expression (tau protein; 0-50 mM) | concentration at which an effect on total tau protein expression is seen (tau protein) | cell survival related protein (β-catenine) expression (β-catenine) | inhibition of the activity of GSK-3β (phosphorylated GSK-3β (Ser9) expression) (GSK-3β [1]) | Notch protein expression (Notch protein) | effect on phosphorylated GSK-3β (Ser9) expression in brain tissues (GSK-3β [2]) | symptoms of experimental animals (Kunming mice; oral, 464 mg/kg and 1,000 mg/kg dose groups) | symptoms and death of experimental animals (Kunming mice; oral, 2,150 mg/kg and 4,640 mg/kg dose groups, within 24 hours) | change in morphology of HEK293 cells (HEK293 cells)
1 | lithium isobutyrate-L-proline salt | significantly decrease the total tau protein expression in a concentration-dependent manner | 3.125 mM | significantly increases the cell survival related protein (β-catenine) expression in a dose-dependent manner | significantly decreased phosphorylated GSK-3β (Ser9) expression in a dose-dependent manner; also recorded: dose-dependent inhibition effect on the GSK-3β, and the inhibition effect is stable | no influence on the Notch expression | significantly better than that of the lithium carbonate |  |  | 
2 | O=C([O-])[O-].[Li+].[Li+] [lithium carbonate, reference compound] |  | 6.25 mM |  | obviously lower than that of the lithium isobutyrate-L-proline salt | obvious inhibition effect on the Notch protein expression |  | no abnormalities | abnormal posture symptoms within 24 hours and are all dead | obvious change in morphology
